Test results reported in patent US20210323976A1, “HETEROARYL COMPOUNDS FOR KINASE INHIBITION” (ARIAD Pharmaceuticals, Inc., priority 2015, published 2021).

Assays:
Assay type in all cases: cell-based
[1] = target: T1, EGFR exon 20 ASV insertion (V769_D770insASV) (Homo sapiens, UniProt P00533, INS769ASV); experiment: Ba/F3-EGFR-Exon20-ASV cell anti-proliferation assay (MTS, CellTiter 96 AQueous One); details: Ba/F3-EGFR-Exon20-ASV cells, 72 h, MTS signal
T1 construct: expressed in transfected cells; host or cells: Ba/F3 (murine pro-B) cells, lentiviral transduction with pLVX-IRES puro
T1 sequence (P00533 with tags, fused parts or gaps INS769ASV): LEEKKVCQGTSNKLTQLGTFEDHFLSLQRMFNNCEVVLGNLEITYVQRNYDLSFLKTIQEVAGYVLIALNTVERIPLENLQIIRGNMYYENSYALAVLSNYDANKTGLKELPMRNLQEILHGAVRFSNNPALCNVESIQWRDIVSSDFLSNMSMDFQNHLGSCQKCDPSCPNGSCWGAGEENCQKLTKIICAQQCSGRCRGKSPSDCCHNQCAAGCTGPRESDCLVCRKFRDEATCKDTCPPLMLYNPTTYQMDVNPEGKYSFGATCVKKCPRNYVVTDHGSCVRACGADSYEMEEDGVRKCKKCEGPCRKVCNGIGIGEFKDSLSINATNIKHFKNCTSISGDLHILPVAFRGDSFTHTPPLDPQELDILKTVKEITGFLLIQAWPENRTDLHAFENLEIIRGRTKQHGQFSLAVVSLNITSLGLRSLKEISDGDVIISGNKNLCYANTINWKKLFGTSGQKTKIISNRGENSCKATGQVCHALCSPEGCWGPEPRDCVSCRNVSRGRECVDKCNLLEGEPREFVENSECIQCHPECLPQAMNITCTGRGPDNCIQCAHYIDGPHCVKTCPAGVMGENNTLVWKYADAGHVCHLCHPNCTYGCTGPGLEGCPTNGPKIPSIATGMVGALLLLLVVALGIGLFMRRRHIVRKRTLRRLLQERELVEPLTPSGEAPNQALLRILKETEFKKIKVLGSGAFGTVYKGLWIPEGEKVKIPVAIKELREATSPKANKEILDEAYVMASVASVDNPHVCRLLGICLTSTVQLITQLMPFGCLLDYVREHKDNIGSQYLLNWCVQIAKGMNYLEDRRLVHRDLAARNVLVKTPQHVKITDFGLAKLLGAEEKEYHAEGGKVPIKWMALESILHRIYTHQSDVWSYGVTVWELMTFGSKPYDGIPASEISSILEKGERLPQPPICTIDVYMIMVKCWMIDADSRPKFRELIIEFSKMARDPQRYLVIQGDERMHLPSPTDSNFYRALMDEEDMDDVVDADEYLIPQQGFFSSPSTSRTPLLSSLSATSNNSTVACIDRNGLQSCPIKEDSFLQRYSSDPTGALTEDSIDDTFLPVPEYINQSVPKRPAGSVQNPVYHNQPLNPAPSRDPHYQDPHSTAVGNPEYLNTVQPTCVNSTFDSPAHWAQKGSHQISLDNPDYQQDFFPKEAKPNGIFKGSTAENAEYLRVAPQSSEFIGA
Source text: A compound's ability in selectively inhibiting EGFR exon 20 insertion mutations can be assessed using Ba/F3 cells, a murine pro-B cell line, which have been transduced with EGFR exon 20 insertions. An expression vector, pLVX-IRES puro (Clontech) coding for human EGFR exon 20 insertions NPG (H773_V774insNPG) or ASV (V769_D770insASV), was transfected into HEK293 cells by the Trans-Lentiviral ORF Packaging System (Thermo Scientific), to produce virus encoding EGFR exon 20 insertions. Ba/F3 (DSMZ) cells maintained in RPM11640 medium supplemented with 10% fetal bovine serum, 200 pM L-glutamine/200 µg/mL penicillin/200 µg/mL streptomycin (Life Technology) and 10 ng/mL IL-3 (R&D system), were infected by EGFR Exon20 virus and subsequently selected by puromycin (Life Technology) selection and IL-3 depletion. Ba/F3 cells expressing EGFR exon 20 insertions (named Ba/F3-EGFR-Exon20-NPG or Ba/F3-EGFR-Exon20-ASV) can proliferate in the absence of IL-3. The anti-proliferative activity of compounds were determined as follows: BaF3-EGFR-Exon20 cells (NPG or ASV) seeded in 96 well plates (2500 cells/well) were treated with test compound (dissolved in DMSO) at a series of concentrations (4-fold dilution, top concentration: 10,000 nM). The plates were incubated for 72 h in a 37° C. incubator with 5% CO2, and the number of viable cells in each well were measured indirectly by CellTiter 96® Aqueous One Solution Cell Proliferation Assay (Promega) This assay is a colorimetric method for determining the number of viable cells through measurement of their metabolic activity by detection of enzymatic conversion of tetrazolium salts into blue formazan derivatives. Reagent (20 pL) was added into each well, and the plates were returned to the incubator for 2 h. The absorbance in each well was then measured at 490 nm using an Envision plate reader (Perkin Elmer). IC50 values were calculated by determining the concentration of compound required to decrease the MTS signal by 50% comparing to the DMSO control in best-fit curves using Microsoft XLfit software or Accelrys Pipeline Pilot.

[2] = target: T2, EGFR exon 19 deletion (E746-A750) and T790M mutation (Homo sapiens, UniProt P00533, DEL746-750/T790M); experiment: Ba/F3-EGFR-Del/T790M cell anti-proliferation assay (MTS); details: Ba/F3-EGFR-Del/T790M cells, 72 h, MTS signal
T2 construct: expressed in transfected cells; host or cells: Ba/F3 (murine pro-B) cells, lentiviral transduction with pLVX-IRES puro
T2 sequence (P00533 with tags, fused parts or gaps DEL746-750/T790M): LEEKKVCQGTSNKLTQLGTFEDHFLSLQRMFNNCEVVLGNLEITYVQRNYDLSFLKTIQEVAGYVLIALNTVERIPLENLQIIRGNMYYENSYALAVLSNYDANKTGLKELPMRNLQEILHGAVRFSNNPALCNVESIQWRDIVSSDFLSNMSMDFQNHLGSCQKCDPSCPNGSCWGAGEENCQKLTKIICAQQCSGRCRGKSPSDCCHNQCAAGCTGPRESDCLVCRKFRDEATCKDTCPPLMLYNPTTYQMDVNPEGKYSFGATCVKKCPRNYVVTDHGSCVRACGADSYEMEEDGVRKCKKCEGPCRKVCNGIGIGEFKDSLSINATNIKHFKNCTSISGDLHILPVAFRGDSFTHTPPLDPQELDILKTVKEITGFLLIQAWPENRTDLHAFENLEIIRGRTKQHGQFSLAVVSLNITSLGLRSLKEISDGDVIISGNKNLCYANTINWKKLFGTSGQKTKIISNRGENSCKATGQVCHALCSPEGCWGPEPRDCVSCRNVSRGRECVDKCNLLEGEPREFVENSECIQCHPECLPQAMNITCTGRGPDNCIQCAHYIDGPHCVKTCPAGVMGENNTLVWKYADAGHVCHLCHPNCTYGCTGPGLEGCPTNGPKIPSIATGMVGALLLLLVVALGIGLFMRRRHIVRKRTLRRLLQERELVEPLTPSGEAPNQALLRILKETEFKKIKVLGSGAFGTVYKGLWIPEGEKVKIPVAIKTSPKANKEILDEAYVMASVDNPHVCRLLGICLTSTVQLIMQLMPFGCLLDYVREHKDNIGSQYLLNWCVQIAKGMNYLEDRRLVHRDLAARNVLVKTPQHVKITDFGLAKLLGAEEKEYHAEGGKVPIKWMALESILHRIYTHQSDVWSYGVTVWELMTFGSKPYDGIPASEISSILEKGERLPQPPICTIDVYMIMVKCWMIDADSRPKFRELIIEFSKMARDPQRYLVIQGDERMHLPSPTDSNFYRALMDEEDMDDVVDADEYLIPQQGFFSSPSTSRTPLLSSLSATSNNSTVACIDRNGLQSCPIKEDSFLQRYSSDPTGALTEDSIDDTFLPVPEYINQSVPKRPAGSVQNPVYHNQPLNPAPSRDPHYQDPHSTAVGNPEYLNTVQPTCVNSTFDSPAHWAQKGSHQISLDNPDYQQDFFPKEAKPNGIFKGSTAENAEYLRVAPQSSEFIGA
Source text: A compound's ability in selectively inhibiting EGFR exon 19 deletion and T790M concurrent mutations can be assessed using Ba/F3 cells, a murine pro-B cell line, which have been transduced with EGFR exon 19 deletion and T790M mutation. An expression vector, pLVX-IRES puro (Clontech) coding for human EGFR E746-A750 deletion and T790M Mutation, was transfected into HEK293 cells by the Trans-Lentiviral ORF Packaging System (Thermo Scientific), to produce virus encoding EGFR exon 19 deletion and T790M mutations. Ba/F3 (DSMZ) cells maintained in RPM11640 medium supplemented with 10% fetal bovine serum, 200 pM L-glutamine/200 μg/mL penicillin/200 μg/mL streptomycin (Life Technology) and 10 ng/mL IL-3 (R&D system), were infected by EGFR E746-A750 deletion and T790M Mutation virus and subsequently selected by puromycin (Life Technology) selection and IL-3 depletion. Ba/F3 cells expressing EGFR E746-A750 deletion and T790M Mutation (named Ba/F3-EGFR-Del/T790M) can proliferate in the absence of IL-3. The anti-proliferative activity of compounds was determined as follows: BaF3-EGFR-Del/T790M cells seeded in 96 well plates (2500 cells/well) were treated with test compound (dissolved in DMSO) at a series of concentrations (4-fold dilution, top concentration: 10,000 nM). The plates were incubated for 72 h in a 37° C. incubator with 5% CO2, and the number of viable cells in each well were measured indirectly by CellTiter 96® Aqueous One Solution Cell Proliferation Assay (Promega; this assay is a colorimetric method for determining the number of viable cells through measurement of their metabolic activity by detection of enzymatic conversion of tetrazolium salts into blue formazan derivatives). Reagent (20 pL) was added into each well, and the plates were returned to the incubator for 2 h. The absorbance in each well was then measured at 490 nm using an Envision plate reader (Perkin Elmer). IC50 values were calculated by determining the concentration of compound required to decrease the MTS signal by 50% comparing to the DMSO control in best-fit curves using Microsoft XLfit software or Accelrys Pipeline Pilot.

[3] = target: T3, EGFR exon 21 L858R and T790M mutation (Homo sapiens, UniProt P00533, L858R/T790M); experiment: Ba/F3-EGFR L858R/T790M cell anti-proliferation assay (MTS); details: Ba/F3-EGFR L858R/T790M cells, 72 h, MTS signal
T3 construct: expressed in transfected cells; host or cells: Ba/F3 (murine pro-B) cells, lentiviral transduction with pLVX-IRES puro
T3 sequence (P00533 25-1210 T790M/L858R): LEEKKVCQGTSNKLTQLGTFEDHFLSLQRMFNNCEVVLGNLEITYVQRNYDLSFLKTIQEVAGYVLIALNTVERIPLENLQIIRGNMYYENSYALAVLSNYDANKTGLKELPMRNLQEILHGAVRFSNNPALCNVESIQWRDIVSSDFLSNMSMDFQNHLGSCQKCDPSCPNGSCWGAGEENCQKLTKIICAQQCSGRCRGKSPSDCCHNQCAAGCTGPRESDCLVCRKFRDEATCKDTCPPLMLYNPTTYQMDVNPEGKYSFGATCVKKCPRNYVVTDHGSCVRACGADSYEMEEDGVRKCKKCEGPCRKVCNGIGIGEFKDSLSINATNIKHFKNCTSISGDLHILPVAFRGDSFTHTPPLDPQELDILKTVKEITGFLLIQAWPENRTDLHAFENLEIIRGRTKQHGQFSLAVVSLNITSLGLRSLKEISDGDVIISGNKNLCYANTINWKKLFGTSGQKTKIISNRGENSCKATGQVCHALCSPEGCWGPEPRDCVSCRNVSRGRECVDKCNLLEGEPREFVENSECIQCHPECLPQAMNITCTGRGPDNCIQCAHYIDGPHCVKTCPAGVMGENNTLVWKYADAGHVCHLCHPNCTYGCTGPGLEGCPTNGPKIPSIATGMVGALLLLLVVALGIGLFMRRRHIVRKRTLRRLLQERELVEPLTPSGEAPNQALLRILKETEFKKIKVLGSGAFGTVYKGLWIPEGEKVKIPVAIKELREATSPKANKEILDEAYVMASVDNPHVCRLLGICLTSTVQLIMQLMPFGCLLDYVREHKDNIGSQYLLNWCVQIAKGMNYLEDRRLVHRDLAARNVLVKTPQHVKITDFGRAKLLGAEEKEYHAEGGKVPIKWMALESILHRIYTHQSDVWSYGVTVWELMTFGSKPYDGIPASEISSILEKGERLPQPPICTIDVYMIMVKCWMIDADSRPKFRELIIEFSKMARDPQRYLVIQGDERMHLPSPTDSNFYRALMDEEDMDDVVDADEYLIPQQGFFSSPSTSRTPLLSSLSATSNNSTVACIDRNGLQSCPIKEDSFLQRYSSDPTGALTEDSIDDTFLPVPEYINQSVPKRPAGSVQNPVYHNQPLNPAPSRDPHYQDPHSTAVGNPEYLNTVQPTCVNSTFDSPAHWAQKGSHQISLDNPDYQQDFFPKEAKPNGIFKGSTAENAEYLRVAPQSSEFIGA
Source text: A compound's ability in selectively inhibiting EGFR L858R and T790M concurrent mutations can be assessed using Ba/F3 cells, a murine pro-B cell line, which have been transduced with EGFR L858R and T790M double mutations. An expression vector, pLVX-IRES puro (Clontech) coding for human EGFR L858R and T790M double mutation, was transfected into HEK293 cells by the Trans-Lentiviral ORF Packaging System (Thermo Scientific), to produce virus encoding EGFR L858R and T790M double mutations. Ba/F3 (DSMZ) cells maintained in RPM11640 medium supplemented with 10% fetal bovine serum, 200 pM L-glutamine/200 μg/mL penicillin/200 μg/mL streptomycin (Life Technology) and 10 ng/mL IL-3 (R&D system), were infected by EGFR L858R and T790M double mutation virus and subsequently selected by puromycin (Life Technology) selection and IL-3 depletion. Ba/F3 cells expressing EGFR L858R and T790M double mutation (named Ba/F3-EGFR L858R/T790M) can proliferate in the absence of IL-3. The anti-proliferative activity of compounds was determined as follows: BaF3-EGFR L858R/T790M cells seeded in 96 well plates (2500 cells/well) were treated with test compound (dissolved in DMSO) at a series of concentrations (4-fold dilution, top concentration: 10,000 nM). The plates were incubated for 72 h in a 37° C. incubator with 5% CO2, and the number of viable cells in each well were measured indirectly by CellTiter 96® Aqueous One Solution Cell Proliferation Assay (Promega; this assay is a colorimetric method for determining the number of viable cells through measurement of their metabolic activity by detection of enzymatic conversion of tetrazolium salts into blue formazan derivatives). Reagent (20 pL) was added into each well, and the plates were returned to the incubator for 2 h. The absorbance in each well was then measured at 490 nm using an Envision plate reader (Perkin Elmer). IC50 values were calculated by determining the concentration of compound required to decrease the MTS signal by 50% comparing to the DMSO control in best-fit curves using Microsoft XLfit software or Accelrys Pipeline Pilot.

Row | Structure (SMILES) | IC50 [1] | EGFR exon 19 deletion and T790M mutation IC50 [2] | EGFR exon 21 L858R and T790M mutation IC50 [3]
1 | C=CC(=O)Nc1cc(Nc2nccc(-n3c4c(c5ccccc53)CC(O)CC4)n2)c(OC)cc1N(C)CCN(C)C (stereo not drawn) [Example 10, N-(2-((2-(dimethylamino)ethyl)(methyl)amino)-5-((4-(3-hydroxy-1,2,3,4-tetrahydro-9H-carbazol-9-yl)pyrimidin-2-yl)amino)-4-methoxyphenyl)acrylamide] | < 100 nM | A (Group A compounds have an IC50 value for the indicated mutant below about 100 nM) | A (Group A compounds have an IC50 value for the indicated mutant below about 100 nM)
2 | C=CC(=O)Nc1cc(Nc2nccc(-c3c4n(c5ccccc35)CCN(C)C4=O)n2)c(OC)cc1N(C)CCN(C)C [Example 2, N-(2-((2-(dimethylamino)ethyl)(methyl)amino)-4-methoxy-5-((4-(2-methyl-1-oxo-1,2,3,4-tetrahydropyrazino[1,2-a]indol-10-yl)pyrimidin-2-yl)amino)phenyl)acrylamide] | 100 to 500 nM | A (Group A compounds have an IC50 value for the indicated mutant below about 100 nM) | A (Group A compounds have an IC50 value for the indicated mutant below about 100 nM)
3 | C=CC(=O)Nc1cc(Nc2nccc(-c3c4n(c5ccccc35)CC(O)CC4)n2)c(OC)cc1N(C)CCN(C)C (stereo not drawn) [Example 3, N-(2-((2-(dimethylamino)ethyl)(methyl)amino)-5-((4-(7-hydroxy-6,7,8,9-tetrahydropyrido[1,2-a]indol-10-yl)pyrimidin-2-yl)amino)-4-methoxyphenyl)acrylamide] | < 100 nM | A (Group A compounds have an IC50 value for the indicated mutant below about 100 nM) | A (Group A compounds have an IC50 value for the indicated mutant below about 100 nM)

The next lines start with results.

Row | IC50 [1] | Structure (SMILES) | EGFR exon 19 deletion and T790M mutation IC50 [2] | EGFR exon 21 L858R and T790M mutation IC50 [3]
4 | < 100 nM | C=CC(=O)Nc1cc(Nc2nccc(-c3c4n(c5ccccc35)CC(OC)CC4)n2)c(OC)cc1N(C)CCN(C)C (stereo not drawn) [Example 7, N-(2-((2-(dimethylamino)ethyl)(methyl)amino)-4-methoxy-5-((4-(7-methoxy-6,7,8,9-tetrahydropyrido[1,2-a]indol-10-yl)pyrimidin-2-yl)amino)phenyl)acrylamide] | A (Group A compounds have an IC50 value for the indicated mutant below about 100 nM) | A (Group A compounds have an IC50 value for the indicated mutant below about 100 nM)
5 | < 100 nM | C=CC(=O)Nc1cc(Nc2nccc(-c3c4n(c5ccccc35)CC3OC(C)(C)OC3C4)n2)c(OC)cc1N(C)CCN(C)C (stereo not drawn) [Example 4, N-(5-((4-(cis-2,2-dimethyl-3a,4,11,11a-tetrahydro-[1,3]dioxolo[4′,5′:4,5]pyrido[1,2-a]indol-10-yl)pyrimidin-2-yl)amino)-2-((2-(dimethylamino)ethyl)(methyl)amino)-4-methoxyphenyl)acrylamide] | A (Group A compounds have an IC50 value for the indicated mutant below about 100 nM) | A (Group A compounds have an IC50 value for the indicated mutant below about 100 nM)
6 | < 100 nM | C=CC(=O)Nc1cc(Nc2nccc(-c3c4n(c5ccccc35)CCOC4)n2)c(OC)cc1N(C)CCN(C)C [Example 1, N-(5-((4-(3,4-dihydro-1H-[1,4]oxazino[4,3-a]indol-10-yl)pyrimidin-2-yl)amino)-2-((2-(dimethylamino)ethyl)(methyl)amino)-4-methoxyphenyl)acrylamide] | A (Group A compounds have an IC50 value for the indicated mutant below about 100 nM) | A (Group A compounds have an IC50 value for the indicated mutant below about 100 nM)
7 | < 100 nM | C=CC(=O)Nc1cc(Nc2nccc(-c3c4n(c5ccccc35)CC(O)C(O)C4)n2)c(OC)cc1N(C)CCN(C)C (stereo not drawn) [Example 6, N-(5-((4-(cis-7,8-dihydroxy-6,7,8,9-tetrahydropyrido[1,2-a]indol-10-yl)pyrimidin-2-yl)amino)-2-((2-(dimethylamino)ethyl)(methyl)amino)-4-methoxyphenyl)acrylamide] | A (Group A compounds have an IC50 value for the indicated mutant below about 100 nM) | A (Group A compounds have an IC50 value for the indicated mutant below about 100 nM)
8 | < 100 nM | C=CC(=O)Nc1cc(Nc2nccc(-c3c4n(c5ccccc35)CCCC4)n2)c(OC)cc1N(C)CCN(C)C [Example 5, N-(2-((2-(dimethylamino)ethyl)(methyl)amino)-4-methoxy-5-((4-(6,7,8,9-tetrahydropyrido[1,2-a]indol-10-yl)pyrimidin-2-yl)amino)phenyl)acrylamide] | A (Group A compounds have an IC50 value for the indicated mutant below about 100 nM) | A (Group A compounds have an IC50 value for the indicated mutant below about 100 nM)
